Data reported in PubChem BioAssay (NCI).
Several values for one entry are separate records, joined by “and”; a condition that tells them apart may be missing. Equal entries are not always repeated.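 Grown in 96-well plates, cells were treated for 48 hours with each compound at five concentrations. Insufficient inhibition: endpoint recorded as highest concentration tested. GI50: concentration for 50% inhibition of growth. TGI is the concentration that stops growth completely.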

Tested on: MDA-MB-468 breast
Experiment: DTP human tumour cell line panel, 48 h

| Compound | GI50 | TGI |
| --- | --- | --- |
| CN1CCN(CCCOc2ccc3nc(Nc4ccc(C(F)(F)F)c(Cl)c4)ccc3c2)CC1 | 1.54 µM | 3.16 µM |
| CN1CCN(CCCN2c3ccccc3Sc3ccc(C(F)(F)F)cc32)CC1 | 1.52 µM | 3.19 µM |
| O=C(Nc1cccc(-n2cc(-c3ccncc3)c(-c3ccc(O)c(Cl)c3)n2)c1)c1ccc(N2CCOCC2)c(C(F)(F)F)c1 | 35.3 µM | > 50 µM |
| O=C(Nc1ccc(Cl)cc1F)c1cc(Cl)ccc1O | 0.429 µM | 3.96 µM |
| OCCN1CCN(c2nc(Nc3ccc(-c4nc5ccccc5[nH]4)cc3)c3cn[nH]c3n2)CC1 | 1.69 µM | 3.23 µM |
| CNC(=O)c1c(NC(=O)c2ccc(C(C)C)cc2)sc2c1CCC(=O)C2 | 0.45 µM | 2.33 µM |
| COc1cccc2cc(-c3nc(C4CCC(C(=O)O)CC4)n4ncnc(N)c34)[nH]c12 (stereo not given) | 0.185 µM and 0.257 µM | 1.09 µM and 3 µM |
| c1ccc(C2=NN[C@H](c3cn(-c4ccccc4)nc3-c3ccccc3)C2)cc1 | 4.18 µM | > 100 µM |
| O=c1cc(-c2ccccc2)nc2cc(-c3ccco3)[nH]n12 | 2.89 µM | 59.5 µM |
| CCNC(=O)c1ccc2c(c1)nc(-c1ccc(Cl)cc1)n2-c1cc(C(C)(C)C)[nH]n1 | 2.26 µM | 8.3 µM |
| CC#CC(=O)N[C@H]1CCCN(c2c(F)cc(C(N)=O)c3[nH]c(C)c(C)c23)C1 | 11.8 µM | 27 µM |
| CCOC(=O)c1c(NC(=O)c2ccccc2C(F)(F)F)sc2c1CCC(=O)C2 | 2.35 µM | 7.52 µM |
| Nc1ncnc2c1c(C(=O)NO)cn2C1OC(CO)C(O)C1O (stereo not given) | 0.115 µM | 0.908 µM |
| O=C1CCCC(=O)C1C(=O)c1ccc(C(F)(F)F)cc1[N+](=O)[O-] | > 100 µM | > 100 µM |
| CC(=O)OC[C@@]12Oc3c(cccc3-c3ccc(O)c4c3O[C@]3(COC(C)=O)C(=C4O)C(=O)C[C@H](C)[C@@H]3OC(C)=O)C(O)=C1C(=O)C[C@H](C)[C@@H]2OC(C)=O | 15.1 µM | 48.7 µM |
| N=C(N)c1ccc(-c2ccc(-c3ccc(Cl)c(Cl)c3)o2)nc1 | 1.82 µM | 3.56 µM |
| COc1ccc2c(c1)c(-c1nc(-c3cn(C)c4ncccc34)cs1)cn2CCCCN1CCOCC1 | 1.34 µM | 3.08 µM |
| O=C1c2ccccc2CCC1(Br)Br | 1.2 µM | 2.95 µM |
| Cc1nc2sc(C(=O)Nc3cccc(Cl)c3C)c(N)c2cc1C(=O)c1ccccc1 | 0.126 µM | 0.889 µM |
| COc1ccc(C(=O)c2cc(OC)c(OC)c(OC)c2)cc1/C=C/C(=O)c1ccc2c(c1)OCO2 | 1.44 µM | 4.06 µM |
| N#C/C(=C\c1ccc([N+](=O)[O-])s1)c1nc2cc(Br)ccc2s1 | 1.89 µM | 5.42 µM |
| CC(=O)OC1CC(C)c2c(Cl)ncnc21 (stereo not given) | > 100 µM | > 100 µM |
| CCCN(CCC)c1ccc(/C=N/NC(=O)c2cccnc2)cc1 | 16.4 µM | 84.2 µM |
| COc1cc(C2C(C(=O)OCc3ccccc3)=C(C)NC(C)=C2C(=O)OCc2ccccc2)cc(OC)c1OC | 2.43 µM | > 100 µM |
| O=C1C(Cl)=C(Nc2ccccn2)C(=O)c2ccccc21 | 1.99 µM | 4.39 µM |
| Cc1[nH]c2ccccc2c1C1=CC(=O)C=CC1=O | 3.1 µM | 11.2 µM |
| CCCCC/C=C\C/C=C/CCCCCCCCNC(=O)Nc1ccc([N+](=O)[O-])cc1 | 7.63 µM | 73 µM |
| CCc1cccc(CC)c1NC(=O)c1ccn2c1CCc1cnc(Nc3ccc(N4CCN(C)CC4)cc3OC)nc1-2 | 2.1 µM | 5.91 µM |
| COc1cc(/C=N/Nc2ncnc3c2cnn3Cc2ccccc2)ccc1O | 7.88 µM | > 25 µM |
| O=C(Nc1ccc(O)c(NS(=O)(=O)c2ccc(F)cc2)c1)c1ccc(-c2ccccc2)cc1 | 2.48 µM | 10.8 µM |
